Key:
A549 [1] = experiment: Antiproliferative activity against human A549 cells assessed as reduction in cell viability by CCK8 assay; format: functional, cell-based
A549 [2] = experiment: Antiproliferative activity against human A549 cells assessed as reduction in cell viability incubated for 72 hrs by CCK8 assay; format: functional, cell-based
Huh-7 = experiment: Antiproliferative activity against human Huh-7 cells assessed as reduction in cell viability by CCK8 assay; format: functional, cell-based
[3] = Cytotoxicity against mouse RAW264.7 cells assessed as reduction in cell viability incubated for 72 hrs by CCK8 assay; format: toxicity, cell-based
K562 = experiment: Antiproliferative activity against human K562 cells assessed as reduction in cell viability by CCK8 assay; format: functional, cell-based
Colon 26 = experiment: Antiproliferative activity against mouse Colon 26 cells assessed as reduction in cell viability incubated for 72 hrs by CCK8 assay; format: functional, cell-based; conditions: Colon 26, 72 h

## COC(=O)c1cc2cc(OC)c(-c3c(OC)cc4cc(C(=O)OC)oc(=O)c4c3O)c(O)c2c(=O)o1
A549 [1]
  IC50: 6.94 µM
A549 [2]; Homo sapiens, A549, 72 h
  IC50: 36.9 µM
A549 [2]; a549
  IC50: 60 µM
Huh-7
  IC50: 2590 nM
[3]
  IC50 at 72 h: > 50 µM
K562
  IC50: 6.87 µM
Colon 26
  IC50: > 50 µM
